Square brackets hold non-standard residues; d marks the D form. Ends that are not written are not given here.

In experiment [1] the test system is mouse cell culture. As to conditions: U.S. Ser. No. 11/268,690; cited from earlier work.
The conditions of experiment [2]: intravenous and oral administration of an aqueous solution; U.S. Ser. No. 11/268,690; cited from earlier work.
For experiment [3], the system named is human cell culture. As to conditions: U.S. Ser. No. 11/268,690; cited from earlier work.
For experiment [4], the system named is [3H]-cholesterol-loaded J774 macrophages. Description: in vivo mouse cholesterol export model. Set-up: species or system mice. How it is done:
In these experiments, mice (n=4) were first injected intravenously with [^3H]cholesterol-laden macrophages and then injected 24 hours later with the exemplary retro-inversal D amino acid peptide RFHNPDKGSRGWENAAQDA (D-form; SEQ ID NO: 3). This peptide is the reverse sequence of the forward human D amino acid 19-mer peptide ADQAANEWGRSGKDPNHFR (D-form; SEQ ID NO:11) disclosed in U.S. patent application Ser. No. 11/268,690, filed Nov. 7, 2005, teachings of which are herein incorporated by reference in their entirety.
The retro-inversal D amino acid peptide RFHNPDKGSRGWENAAQDA (SEQ ID NO: 3) at a total dose of 300 ug, was injected into the tail vein of each mouse that was previously (24 hours earlier) injected with H^3-radiolabeled cholesterol-loaded macrophages. […] The blood samples were centrifuged to separate the red blood cells from the plasma and the [^3H]-cholesterol in plasma was determined by scintillation counting. […]
Cells were washed four times with PBS/BSA and then detached from the culture dishes. […] Baseline cholesterol efflux was determined by measuring the amount of [^3H]-cholesterol in plasma by scintillation spectrometry. […]
Five hours following intravenous injection of the reverse peptide, approximately 25 μl of blood were collected from the tail vein of each animal into heparinized capillary tubes and cholesterol efflux was determined as described above. […]

For the sequence “ADQAANEWGRSGKDPNHFR ([dA][dD][dQ][dA][dA][dN][dE][dW]G[dR][dS]G[dK][dD][dP][dN][dH][dF][dR]) [SEQ ID NO:11, forward human SAA 1.1 D amino acid 19-mer peptide disclosed in U.S. Ser. No. 11/268,690]”, the “cholesterol efflux in vitro” value in experiment [1] and in experiment [3] was “effective at increasing cholesterol efflux” throughout. Moreover, the “cholesterol efflux in vivo” value in experiment [2] is recorded as “effective at increasing cholesterol efflux”.

As for “RFHNPDKGSRGWENAAQDA ([dR][dF][dH][dN][dP][dD][dK]G[dS][dR]G[dW][dE][dN][dA][dA][dQ][dD][dA]) [SEQ ID NO: 3]”, the “increase in macrophage cholesterol export relative to control animals treated with saline vehicle alone” value in experiment [4] (300 μg total dose, tail vein injection, [3H]-cholesterol in plasma 5 hours post injection, n=4, p=0.0004) is “over 2.5 fold”. Moreover, the “in vivo macrophage cholesterol export / cholesterol efflux” value in experiment [4] (intravenous, aqueous vehicle, versus vehicle control group (p=0.0004)) is on record as “significantly enhanced”.
